Where “and” joins values, the source holds several entries; their conditions need not be identical. Equal values may be shown once. Calls of active or inactive are those of the source.
Legend:
Insulin-degrading enzyme [1] = biological target: T1, Insulin-degrading enzyme (Homo sapiens, UniProt P14735); assay: activators of recombinant IDE enzyme, dose response, counter-screen for IDE activator project, biochemical, fluorescence polarization (AID 588681)
T1 sequence (P14735 whole entry): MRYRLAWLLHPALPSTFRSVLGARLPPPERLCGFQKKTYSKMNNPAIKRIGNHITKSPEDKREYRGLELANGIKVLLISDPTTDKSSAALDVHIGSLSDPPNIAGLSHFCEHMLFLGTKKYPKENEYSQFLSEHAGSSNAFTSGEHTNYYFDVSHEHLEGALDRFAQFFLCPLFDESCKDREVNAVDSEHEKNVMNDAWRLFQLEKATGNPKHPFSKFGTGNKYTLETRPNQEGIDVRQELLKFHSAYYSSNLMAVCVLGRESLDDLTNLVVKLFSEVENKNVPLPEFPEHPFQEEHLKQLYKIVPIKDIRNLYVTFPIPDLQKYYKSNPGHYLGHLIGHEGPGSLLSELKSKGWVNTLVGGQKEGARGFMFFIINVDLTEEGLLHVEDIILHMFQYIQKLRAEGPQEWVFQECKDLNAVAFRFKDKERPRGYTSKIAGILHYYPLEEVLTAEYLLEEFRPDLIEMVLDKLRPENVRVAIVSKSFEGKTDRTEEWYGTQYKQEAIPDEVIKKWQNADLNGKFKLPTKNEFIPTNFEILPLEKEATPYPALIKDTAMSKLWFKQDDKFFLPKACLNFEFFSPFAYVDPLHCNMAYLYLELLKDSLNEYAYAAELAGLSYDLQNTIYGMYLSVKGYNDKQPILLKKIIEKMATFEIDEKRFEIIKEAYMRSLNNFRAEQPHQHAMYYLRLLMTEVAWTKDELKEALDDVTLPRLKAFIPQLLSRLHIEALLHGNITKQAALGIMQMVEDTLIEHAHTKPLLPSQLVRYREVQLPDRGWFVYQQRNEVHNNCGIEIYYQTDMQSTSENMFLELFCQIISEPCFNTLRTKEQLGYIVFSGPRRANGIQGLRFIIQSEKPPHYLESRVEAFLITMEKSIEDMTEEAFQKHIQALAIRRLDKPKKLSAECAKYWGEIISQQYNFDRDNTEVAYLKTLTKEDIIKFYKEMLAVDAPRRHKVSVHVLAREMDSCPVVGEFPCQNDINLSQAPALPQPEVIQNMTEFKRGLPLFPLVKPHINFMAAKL

Insulin-degrading enzyme [2] = biological target: T1, Insulin-degrading enzyme; assay: activators of endogenous IDE in HEK cells, dose response, cell-based, fluorescence polarization (AID 588439); assay type: functional
HEK293 [3] = assay: HEK cell cytotoxicity by LDH release, dose response, cytotoxicity control for IDE activator project, fluorescence, HEK cells (AID 588440); assay type: functional, cell-based; conditions: Homo sapiens;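 note: cytotoxicity by LDH release measuring loss of membrane integrity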
HEK293 [4] = assay: optical interference in Abeta FP readout, dose response, artefact control for IDE activator project, biochemical, fluorescence polarization (AID 588442); assay type: functional, cell-based; conditions: Homo sapiens
[5] = biological target: T2, Apoptotic protease-activating factor 1 (Homo sapiens, UniProt O14727); assay: SAR analysis of small molecule Activators of Apaf-1 in a Fluorescent assay.; assay type: functional; conditions: read-out: EC50_Mean;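 note: caspase-3 cleavage of fluorogenic Rh110 DEVD substrate downstream of apoptosome activation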
T2 sequence (O14727 whole entry): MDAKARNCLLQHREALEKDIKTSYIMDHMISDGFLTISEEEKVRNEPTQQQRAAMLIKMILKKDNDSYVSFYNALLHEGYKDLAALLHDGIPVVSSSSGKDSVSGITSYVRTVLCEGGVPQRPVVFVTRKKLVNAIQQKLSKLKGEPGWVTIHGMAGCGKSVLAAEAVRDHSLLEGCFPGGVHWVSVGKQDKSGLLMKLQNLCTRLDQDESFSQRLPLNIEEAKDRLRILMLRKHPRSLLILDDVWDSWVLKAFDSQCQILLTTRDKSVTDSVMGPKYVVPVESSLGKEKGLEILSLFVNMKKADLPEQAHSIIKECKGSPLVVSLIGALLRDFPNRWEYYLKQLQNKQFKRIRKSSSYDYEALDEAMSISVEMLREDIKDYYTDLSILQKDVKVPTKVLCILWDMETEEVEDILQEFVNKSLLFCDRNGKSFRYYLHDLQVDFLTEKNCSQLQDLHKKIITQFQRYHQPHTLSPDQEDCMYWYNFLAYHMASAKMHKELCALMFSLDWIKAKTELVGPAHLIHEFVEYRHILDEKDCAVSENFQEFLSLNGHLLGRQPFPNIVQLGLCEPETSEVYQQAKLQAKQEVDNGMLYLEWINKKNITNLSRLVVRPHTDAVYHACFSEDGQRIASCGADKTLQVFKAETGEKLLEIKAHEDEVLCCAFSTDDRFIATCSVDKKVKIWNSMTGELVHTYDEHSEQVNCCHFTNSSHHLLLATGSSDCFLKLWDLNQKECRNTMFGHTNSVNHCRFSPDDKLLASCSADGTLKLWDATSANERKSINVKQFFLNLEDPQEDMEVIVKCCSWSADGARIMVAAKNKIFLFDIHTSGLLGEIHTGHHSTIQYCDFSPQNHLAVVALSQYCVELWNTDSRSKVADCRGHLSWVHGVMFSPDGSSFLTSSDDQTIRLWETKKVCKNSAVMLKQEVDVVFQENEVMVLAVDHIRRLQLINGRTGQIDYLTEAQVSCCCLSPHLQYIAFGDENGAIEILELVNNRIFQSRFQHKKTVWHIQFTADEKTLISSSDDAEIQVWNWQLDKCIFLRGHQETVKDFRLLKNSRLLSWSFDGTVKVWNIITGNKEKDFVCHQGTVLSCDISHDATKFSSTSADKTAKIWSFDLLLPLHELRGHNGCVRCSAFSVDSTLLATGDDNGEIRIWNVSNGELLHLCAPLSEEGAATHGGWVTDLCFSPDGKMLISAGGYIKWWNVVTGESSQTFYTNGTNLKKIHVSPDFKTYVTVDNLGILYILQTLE

SUMO E1/E2 = SUMO E1/E2 (Homo sapiens, UniProt P63279+Q9UBE0+Q9UBT2); assay: SAR analysis of SUMOylation using HTRF in an in-Vitro dose response assay. [Related pubchem assays (depositor defined):AID2006, AID2011, AID2018, AID2069, AID2658]; assay type: functional
[6] = biological target: T3, Voltage-gated N-type calcium channel alpha-1B subunit/Amyloid beta A4 precursor protein-binding family A member 1 (Homo sapiens, UniProt Q00975+Q02410); assay: disruptors of Mint-PDZ/N-type channel peptide interaction – biochemical, HTRF, set 2, SAR follow-up (AID 434980); assay type: functional
T3 sequence (Q00975 whole entry): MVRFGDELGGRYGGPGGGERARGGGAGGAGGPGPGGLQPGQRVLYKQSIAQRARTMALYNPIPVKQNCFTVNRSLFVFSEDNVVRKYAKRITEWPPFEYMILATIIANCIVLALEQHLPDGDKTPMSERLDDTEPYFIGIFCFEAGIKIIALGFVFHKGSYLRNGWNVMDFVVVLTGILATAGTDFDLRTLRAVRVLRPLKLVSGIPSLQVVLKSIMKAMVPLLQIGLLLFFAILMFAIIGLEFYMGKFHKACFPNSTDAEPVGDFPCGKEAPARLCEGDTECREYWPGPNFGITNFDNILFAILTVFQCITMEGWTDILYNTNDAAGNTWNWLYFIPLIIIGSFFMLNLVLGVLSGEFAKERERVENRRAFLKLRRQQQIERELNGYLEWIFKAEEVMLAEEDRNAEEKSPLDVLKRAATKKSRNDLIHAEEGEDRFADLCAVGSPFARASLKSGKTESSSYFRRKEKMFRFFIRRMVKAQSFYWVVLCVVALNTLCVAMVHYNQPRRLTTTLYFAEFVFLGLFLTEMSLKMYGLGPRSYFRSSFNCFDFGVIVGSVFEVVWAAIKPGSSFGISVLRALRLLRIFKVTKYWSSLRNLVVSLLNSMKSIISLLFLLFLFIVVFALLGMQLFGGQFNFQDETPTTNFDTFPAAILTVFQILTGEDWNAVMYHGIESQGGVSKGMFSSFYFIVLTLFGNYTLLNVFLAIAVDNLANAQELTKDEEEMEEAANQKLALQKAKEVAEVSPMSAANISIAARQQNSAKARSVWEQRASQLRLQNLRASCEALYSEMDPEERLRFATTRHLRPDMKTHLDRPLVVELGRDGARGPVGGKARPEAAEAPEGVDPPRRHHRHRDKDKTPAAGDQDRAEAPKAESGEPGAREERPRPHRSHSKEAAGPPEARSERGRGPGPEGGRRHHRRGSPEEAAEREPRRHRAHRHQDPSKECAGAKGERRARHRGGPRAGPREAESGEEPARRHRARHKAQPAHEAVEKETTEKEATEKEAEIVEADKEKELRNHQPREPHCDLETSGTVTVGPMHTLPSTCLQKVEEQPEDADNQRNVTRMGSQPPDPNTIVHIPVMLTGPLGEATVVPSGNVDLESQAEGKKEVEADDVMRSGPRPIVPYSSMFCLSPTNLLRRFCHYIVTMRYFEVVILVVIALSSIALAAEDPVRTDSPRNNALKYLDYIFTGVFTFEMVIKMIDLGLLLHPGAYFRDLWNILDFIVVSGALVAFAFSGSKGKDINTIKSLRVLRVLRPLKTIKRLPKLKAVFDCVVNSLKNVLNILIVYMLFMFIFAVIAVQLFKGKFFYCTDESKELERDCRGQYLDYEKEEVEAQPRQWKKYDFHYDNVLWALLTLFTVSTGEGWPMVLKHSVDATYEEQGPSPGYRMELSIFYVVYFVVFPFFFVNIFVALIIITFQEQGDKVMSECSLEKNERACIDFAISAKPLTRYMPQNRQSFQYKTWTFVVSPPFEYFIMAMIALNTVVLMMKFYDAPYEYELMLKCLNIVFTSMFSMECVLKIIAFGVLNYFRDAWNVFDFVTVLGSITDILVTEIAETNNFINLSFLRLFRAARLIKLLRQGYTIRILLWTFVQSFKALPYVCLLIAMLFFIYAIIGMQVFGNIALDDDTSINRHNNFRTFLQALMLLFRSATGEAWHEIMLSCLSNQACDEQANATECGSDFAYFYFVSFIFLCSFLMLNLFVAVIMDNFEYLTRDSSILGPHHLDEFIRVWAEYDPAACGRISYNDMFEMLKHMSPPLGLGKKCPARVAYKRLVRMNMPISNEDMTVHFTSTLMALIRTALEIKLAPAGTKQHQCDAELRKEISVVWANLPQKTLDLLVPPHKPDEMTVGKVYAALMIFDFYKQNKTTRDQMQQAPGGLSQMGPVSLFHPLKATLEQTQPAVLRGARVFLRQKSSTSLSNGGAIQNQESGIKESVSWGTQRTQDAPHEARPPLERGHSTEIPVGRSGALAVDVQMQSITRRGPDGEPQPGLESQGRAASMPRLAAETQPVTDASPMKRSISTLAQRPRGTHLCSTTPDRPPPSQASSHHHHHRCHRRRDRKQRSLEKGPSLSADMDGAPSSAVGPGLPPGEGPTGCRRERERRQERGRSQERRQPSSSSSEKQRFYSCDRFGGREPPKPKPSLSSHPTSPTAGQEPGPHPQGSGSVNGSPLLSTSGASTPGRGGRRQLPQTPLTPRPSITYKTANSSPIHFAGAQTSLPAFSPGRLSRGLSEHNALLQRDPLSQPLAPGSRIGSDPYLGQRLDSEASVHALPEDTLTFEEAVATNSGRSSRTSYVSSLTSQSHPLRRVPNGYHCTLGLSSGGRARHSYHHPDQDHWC
T3 sequence (Q02410 whole entry): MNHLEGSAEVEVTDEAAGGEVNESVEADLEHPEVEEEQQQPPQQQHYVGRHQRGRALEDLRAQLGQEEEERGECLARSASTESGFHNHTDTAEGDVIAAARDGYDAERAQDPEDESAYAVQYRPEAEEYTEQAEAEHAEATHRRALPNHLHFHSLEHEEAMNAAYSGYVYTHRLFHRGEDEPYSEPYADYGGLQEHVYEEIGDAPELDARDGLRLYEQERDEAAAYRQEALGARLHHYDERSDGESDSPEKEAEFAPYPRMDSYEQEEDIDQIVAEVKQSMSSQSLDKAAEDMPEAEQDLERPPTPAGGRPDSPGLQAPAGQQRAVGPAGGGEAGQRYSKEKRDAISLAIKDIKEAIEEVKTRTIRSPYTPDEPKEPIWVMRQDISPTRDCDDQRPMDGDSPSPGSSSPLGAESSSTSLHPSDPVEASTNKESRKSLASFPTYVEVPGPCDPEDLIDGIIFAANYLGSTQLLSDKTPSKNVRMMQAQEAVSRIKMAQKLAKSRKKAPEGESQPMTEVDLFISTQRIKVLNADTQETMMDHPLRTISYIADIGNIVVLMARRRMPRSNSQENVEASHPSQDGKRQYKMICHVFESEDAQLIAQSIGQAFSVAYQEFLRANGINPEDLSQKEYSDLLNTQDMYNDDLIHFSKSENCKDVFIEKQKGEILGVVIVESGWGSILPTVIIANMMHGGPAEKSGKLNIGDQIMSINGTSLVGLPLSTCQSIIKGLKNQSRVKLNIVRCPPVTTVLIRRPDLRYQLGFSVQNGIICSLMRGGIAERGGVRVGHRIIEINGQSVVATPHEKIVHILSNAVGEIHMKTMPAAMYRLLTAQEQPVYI

[7] = biological target: T3, Voltage-gated N-type calcium channel alpha-1B subunit/Amyloid beta A4 precursor protein-binding family A member 1; assay: disruptors of Mint-PDZ/N-type channel peptide interaction – biochemical, HTRF, SAR follow-up (AID 2489); assay type: functional
[8] = biological target: Potassium voltage-gated channel subfamily KQT member 2 (Rattus norvegicus, UniProt O88943); assay: KCNQ2 potassium channel inhibitors, dose response, cell-based, automated electrophysiology, set II, rat KCNQ2 (AID 588637); assay type: functional
Sequence of Potassium voltage-gated channel subfamily KQT member 2 (O88943 whole entry, the tested form may be a part): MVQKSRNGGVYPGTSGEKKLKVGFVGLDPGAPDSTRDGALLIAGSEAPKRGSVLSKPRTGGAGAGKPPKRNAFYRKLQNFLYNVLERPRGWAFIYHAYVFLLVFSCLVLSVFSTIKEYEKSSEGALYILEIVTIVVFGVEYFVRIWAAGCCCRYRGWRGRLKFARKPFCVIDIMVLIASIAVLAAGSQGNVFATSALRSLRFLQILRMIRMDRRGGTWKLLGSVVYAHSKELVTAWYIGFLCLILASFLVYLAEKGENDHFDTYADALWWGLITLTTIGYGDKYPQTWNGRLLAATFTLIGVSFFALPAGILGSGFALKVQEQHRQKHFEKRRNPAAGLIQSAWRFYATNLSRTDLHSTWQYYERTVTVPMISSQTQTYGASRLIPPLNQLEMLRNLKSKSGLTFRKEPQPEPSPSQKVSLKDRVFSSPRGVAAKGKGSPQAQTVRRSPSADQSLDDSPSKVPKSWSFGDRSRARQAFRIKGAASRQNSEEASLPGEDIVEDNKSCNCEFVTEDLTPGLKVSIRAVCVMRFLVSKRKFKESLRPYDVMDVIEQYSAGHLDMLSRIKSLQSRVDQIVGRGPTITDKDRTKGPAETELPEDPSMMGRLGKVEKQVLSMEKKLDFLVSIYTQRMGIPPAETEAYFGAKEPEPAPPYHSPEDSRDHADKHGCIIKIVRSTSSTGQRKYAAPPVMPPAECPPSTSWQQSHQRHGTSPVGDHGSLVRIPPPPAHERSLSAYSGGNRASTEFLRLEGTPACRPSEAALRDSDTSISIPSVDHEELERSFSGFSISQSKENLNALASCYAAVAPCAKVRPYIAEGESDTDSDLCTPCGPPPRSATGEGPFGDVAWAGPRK

[9] = biological target: T4, Carboxy-terminal domain RNA polymerase II polypeptide A small phosphatase 1 (Homo sapiens, UniProt Q9GZU7); assay: inhibitors of CTDSP1, concentration-response testing, biochemical assay, absorbance-based, actives from ultra-high-throughput screening (AID 540297); assay type: functional
T4 sequence (Q9GZU7 whole entry): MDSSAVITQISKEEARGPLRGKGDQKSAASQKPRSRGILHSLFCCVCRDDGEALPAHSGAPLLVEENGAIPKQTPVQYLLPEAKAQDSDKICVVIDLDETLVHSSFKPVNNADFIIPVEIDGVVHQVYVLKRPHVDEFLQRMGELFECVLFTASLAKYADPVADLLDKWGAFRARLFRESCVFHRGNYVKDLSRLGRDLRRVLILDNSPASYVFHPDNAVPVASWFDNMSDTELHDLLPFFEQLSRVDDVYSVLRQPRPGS

[10] = HEp-2 cell cytotoxicity, dose response, cytotoxicity control for RSV inhibitor project, HTS (AID 2410); assay type: functional; conditions: human respiratory syncytial virus
Vero [11] = assay: cells; assay type: functional, cell-based; conditions: Chlorocebus sabaeus
Vero [12] = assay: cells; assay type: functional; conditions: Chlorocebus sabaeus
Activin receptor type-1 = Activin receptor type-1 (Homo sapiens, UniProt Q04771); assay: Navigating the Kinome. Panel member name: ACVR1; assay type: functional
Sequence of Activin receptor type-1 (Q04771 whole entry): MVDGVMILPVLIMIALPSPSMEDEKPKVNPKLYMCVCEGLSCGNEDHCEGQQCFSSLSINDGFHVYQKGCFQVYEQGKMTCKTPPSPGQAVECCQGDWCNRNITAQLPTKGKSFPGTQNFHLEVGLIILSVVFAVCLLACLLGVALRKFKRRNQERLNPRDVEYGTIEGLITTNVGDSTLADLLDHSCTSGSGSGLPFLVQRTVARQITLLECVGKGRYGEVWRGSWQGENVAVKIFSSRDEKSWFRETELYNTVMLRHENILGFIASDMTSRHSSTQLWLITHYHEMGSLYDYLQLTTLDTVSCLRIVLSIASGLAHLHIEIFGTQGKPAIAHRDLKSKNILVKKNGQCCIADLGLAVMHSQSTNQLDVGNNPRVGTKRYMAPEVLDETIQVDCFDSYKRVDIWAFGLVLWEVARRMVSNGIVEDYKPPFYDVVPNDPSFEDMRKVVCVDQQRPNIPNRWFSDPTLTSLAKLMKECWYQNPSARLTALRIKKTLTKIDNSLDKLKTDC

CCc1nnc(NS(=O)(=O)c2ccc(N/C=C3/C(=O)NC(=O)N(c4ccc(Cl)cc4)C3=O)cc2)s1
EC50 (Insulin-degrading enzyme [1]): > 54.7 µM (inactive)
EC50 (Insulin-degrading enzyme [2]): > 54.7 µM (inactive)
IC50 (HEK293 [3]): > 89.2 µM (inactive)
EC50 (HEK293 [4]): > 54.7 µM (inactive)

CC(Cc1ccc2c(c1)OCO2)C(=O)O (centres undefined)
EC50 [5]: > 100 µM (inactive)

COc1ccc(CCNC(=O)c2cc(-c3ccco3)nc3ccccc23)cc1
IC50 (SUMO E1/E2): 16.5 µM (active)
IC50 [6]: 12.8 µM (active) and > 56.8 µM (inactive)
IC50 [7]: 17.3 µM (active) and > 56.8 µM (inactive)
IC50 [8]: 4.08 µM (active)
IC50 [9]: 4.22 µM (active)

O=C(O)c1ccccc1Nc1ccc([N+](=O)[O-])cc1
CC50 [10]: 8.65 µM (active)
EC50 (Insulin-degrading enzyme [1]): 14 µM (inactive)
IC50 (Vero [11]): 8.6 µM (active)
EC50 (Insulin-degrading enzyme [2]): 7.99 µM (active)
CC50 (Vero [12]): > 25 µM (active)
IC50 (HEK293 [3]): > 89.1 µM (inactive)
EC50 (HEK293 [4]): 6.88 µM (active)
IC50 (cells): 2.4 µM (active)

O=C1Cc2c([nH]c3ccc([N+](=O)[O-])cc23)-c2ccccc2N1 [ALSTERPAULLONE]
Ki (Activin receptor type-1): 0.0631 µM (active)
